The results in this text go back to ChEMBL document CHEMBL1201862, “PubChem BioAssay data set” (2004).

Test in all cases: inhibition of tumour cell growth, NCI panel, 48 h
Assay [1] deals with A549.
For assay [2], the system named is CAKI-1.
The subject of assay [3] is COLO 205.
The subject of assay [4] is DMS-114.
Assay [5] deals with HCC 2998.
For assay [6], the system named is HL-60.
Assay [7] concerns HOP-18.
Assay [8] has as its system IGROV-1.
Assay [9] relates to KM12.
For assay [10], the system named is M19-MEL.
The subject of assay [11] is Malme-3M.
Assay [12] relates to NCI/ADR-RES.
Assay [13] deals with OVCAR-3.
The test system of assay [14] is OVCAR-4.
Assay [15] concerns OVCAR-5.
Assay [16] concerns RXF 393.
For assay [17], the system named is SNB-78.
Assay [18] has as its system UACC-257.
Assay [19] has as its system BT-549.
In assay [20] the test system is T47D.

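Grown in 96-well plates, cells were treated for 48 hours with each compound at five concentrations. Insufficient inhibition: endpoint recorded as highest concentration tested. GI50 = concentration required for 50% inhibition of growth.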 Activity calls are given as the source filed them. Rule as the data show it: active = GI50 up to about 1.1 µM and inactive = higher.

With `COc1ccc2c(c1)OCCc1cn[nH]c1-2`, the GI50 in [1] was 53.8 µM (inactive); in [2], < 0.01 µM (active); in assay [3], 29.3 µM (inactive); in [4], 27.3 µM (inactive); in assay [5], 83.4 µM (inactive); in assay [6], 13.3 µM (inactive). The GI50 in assay [7] is 30.8 µM (inactive); in assay [8], 23.4 µM (inactive); in assay [9] it was 38.9 µM (inactive); in assay [10], 69 µM (inactive); in [11], 38.9 µM (inactive); in [12], 35.3 µM (inactive). Moreover, the GI50 in [13] was 29 µM (inactive); in [14], 48.6 µM (inactive); in [15], 35.7 µM (inactive); in assay [16], 61.2 µM (inactive); in [17] it was 29.1 µM (inactive); in assay [18] it was 32.7 µM (inactive).
Consider `CCC(=O)NC(Nc1ccc(O)cc1)(C(F)(F)F)C(F)(F)F`, for which the GI50 was 28.1 µM (inactive) in assay [19]; > 100 µM (inactive) in assay [5]; 18.5 µM (inactive) in [6]; 62.7 µM (inactive) in [9]; 42.2 µM (inactive) in assay [11]; 40.6 µM (inactive) in assay [13]. The GI50 in assay [15] was > 100 µM (inactive); in [16], 28.8 µM (inactive); in assay [20], 49.4 µM (inactive); in assay [18] it was 37.4 µM (inactive).
As to `CCOC(=O)C1(CO)CSCCSC1`, the GI50 in assay [1], in [3], in assay [5], in assay [9], in assay [12] and in assay [16] was > 100 µM (inactive) each time. Moreover, the GI50 in [18] was > 100 µM (inactive).
For the compound `CCn1c(=O)c2c3ccc(O)cc3[nH]c2c2ccc(O)cc21`, the GI50 in [1], in [19], in assay [2], in assay [3], in [5] and in assay [8] was > 100 µM (inactive) each time. For the same compound, the GI50 in assay [9] was > 100 µM (inactive); in assay [11], 95.9 µM (inactive); in assay [12], > 100 µM (inactive); in [13], > 100 µM (inactive); in assay [14], > 100 µM (inactive); in [15], > 100 µM (inactive). The GI50 is > 100 µM (inactive) in [16], 51.2 µM (inactive) in [20] and > 100 µM (inactive) in assay [18].
As to `C/C(=C/C(=O)Nc1ccccc1)Nc1onc(C)c1C`, the GI50 in assay [1], in assay [3], in assay [4], in assay [5], in assay [6] and in assay [7] was > 100 µM (inactive) each time. For the same compound, the GI50 in assay [8], in assay [9], in assay [10], in assay [11], in [12] and in assay [13] was > 100 µM (inactive) throughout. For the same compound, the GI50 in assay [14], in assay [15], in assay [16], in [17] and in assay [18] was > 100 µM (inactive) in each case.
Regarding `O=C(O)c1cc([N+](=O)[O-])cc2c(=O)c3cnccc3[nH]c12`, the GI50 in [19], in assay [2], in [3], in [5], in assay [6] and in assay [8] was > 100 µM (inactive) each time. In addition, the GI50 in assay [9], in assay [11], in [12], in assay [13], in assay [14] and in [15] was > 100 µM (inactive) each time. The GI50 in assay [16] and in assay [20] was > 100 µM (inactive) in each case.
With `CC(=O)CCC#Cc1ccccc1C(=O)C(C)=[N+]=[N-]`, the GI50 in [1] is 41 µM (inactive); in assay [3] it was 14.9 µM (inactive); in assay [4], 12.9 µM (inactive); in assay [5] it was > 100 µM (inactive); in assay [6] it was 13.2 µM (inactive); in assay [7], 97.1 µM (inactive). Further, the GI50 in assay [8] is 30 µM (inactive); in assay [9], 45 µM (inactive); in assay [11], 19.6 µM (inactive); in assay [13], 28.5 µM (inactive); in assay [14], 50.9 µM (inactive); in assay [15], > 100 µM (inactive). For the same compound, the GI50 in assay [16] is 23.6 µM (inactive); in [18], 53 µM (inactive).
On to `CSc1nc2c(ncn2C2OC(CO)C(O)C(O)C2O)c(=O)[nH]1` (stereo unspecified), for which the GI50 in assay [1], in assay [3], in [4], in assay [5], in [6] and in [7] was > 100 µM (inactive) each time. Moreover, the GI50 in assay [8], in assay [9], in assay [10], in assay [11], in [12] and in assay [13] was > 100 µM (inactive) each time. Also, the GI50 in assay [14], in assay [15], in assay [16], in assay [17] and in [18] was > 100 µM (inactive) in each case.
As for `CC(C)c1cccc(C(C)C)c1NC(=S)Nc1ccccc1`, the GI50 in [1] was > 100 µM (inactive); in assay [3], > 100 µM (inactive); in assay [4] it was 43 µM (inactive); in assay [5] it was > 100 µM (inactive); in [6], 6.81 µM (inactive); in assay [7], > 100 µM (inactive). Also, the GI50 in assay [8] is > 100 µM (inactive); in [9], > 100 µM (inactive); in [10] it was > 100 µM (inactive); in [11], > 100 µM (inactive); in [13], > 100 µM (inactive); in [14], 10.8 µM (inactive). Besides, the GI50 is > 100 µM (inactive) in [15], 75.5 µM (inactive) in [16], > 100 µM (inactive) in [17] and > 100 µM (inactive) in assay [18].
For the compound `O=S(=O)(CF)OCCCCOS(=O)(=O)CF`, the GI50 in assay [2] was > 100 µM (inactive); in [3], > 100 µM (inactive); in [4], 74 µM (inactive); in assay [6], 13.2 µM (inactive); in assay [7], > 100 µM (inactive); in assay [8], > 100 µM (inactive). Further, the GI50 in assay [10], in [11], in assay [13] and in assay [17] was > 100 µM (inactive) each time.
Consider `C=CCOC1OC(CS(=O)(=O)O)C(OC(C)=O)C(OC(C)=O)C1OC(C)=O` (stereo unspecified), for which the GI50 in assay [19], in assay [2], in assay [3], in [5], in [6] and in assay [8] was > 100 µM (inactive) throughout. Moreover, the GI50 in assay [9], in assay [11], in assay [12], in assay [13], in [14] and in assay [15] was > 100 µM (inactive) each time. In addition, the GI50 in assay [16], in assay [20] and in [18] was > 100 µM (inactive) throughout.
As to `COc1cccc(N[C@@H]2c3cc4c(cc3C(c3cc(OC)c(O)c(OC)c3)[C@H]3C(=O)OCC32)OCO4)c1` (stereo partly specified), the GI50 was 0.0213 µM (active) in assay [1]; 0.197 µM (active) in assay [2]; 2.11 µM (inactive) in [3]; 0.578 µM (active) in [4]; 1.36 µM (inactive) in assay [5]; 0.0499 µM (active) in [6]. For the same compound, the GI50 in [7] was 1.52 µM (inactive); in assay [8], 2.07 µM (inactive); in assay [9], 1.65 µM (inactive); in assay [10], 0.624 µM (active); in assay [11], 1.79 µM (inactive); in assay [12], 0.348 µM (active). Also, the GI50 was 8.53 µM (inactive) in assay [13]; 7.55 µM (inactive) in assay [14]; 4.46 µM (inactive) in assay [15]; 1.07 µM (active) in [16]; 5.36 µM (inactive) in [17]; 0.44 µM (active) in assay [18].
